Experimental data from PMC10089316, “Adeno-Associated virus 8 delivers an immunomodulatory peptide to mouse liver more efficiently than to rat liver” (PLOS ONE, 2023).

Key:
mKv1.3 channels = molecular target: T1, mKv1.3 channels (Mus musculus, UniProt P16390); experiment: whole-cell patch-clamp block of mKv1.3 by synthetic ShK-235; format: cell-based; conditions: Port-a-Patch, L929 fibroblasts stably expressing mKv1.3, 200 ms pulses −80 to 40 mV, 20–25°C, pH 7.4, N = 3 cells per concentration, mean ± SEM, read-out: IC50 for Kv1.3 block
T1 construct: expressed in transfected cells
Protocol: Mouse L929 fibroblasts stably expressing mKv1.3 channels were a kind gift from Dr. Chandy (Nanyang Technological University, Singapore). They were maintained in Dulbecco’s modified Eagle’s medium (DMEM) supplemented with 10% heat-inactivated fetal bovine serum (FBS), 4 mM L-glutamine, 1 mM sodium pyruvate, and 500 μg/mL G418 (Calbiochem/EMD Millipore, Billerica, MA) and cultured to 60~70% confluence.
Patch clamp assays were conducted at room temperature (20–25°C) in the whole-cell configuration using a Port-a-Patch system (Nanion Technologies, Livingston, NJ) connected to a HEKA EPC10-USB amplifier controlled with the PatchMaster software (HEKA, Germany). The external solution contained 1 mM MgCl2, 160 mM NaCl, 4.5 mM KCl, 2 mM CaCl2, and 10 mM Hepes; pH was adjusted to 7.4 with NaOH. […]
The stock of synthetic ShK-235, the supernatants of transfected HEK293T cells, and the rodent serum samples were diluted in the external solution immediately before use and tested in triplicates without any further processing. Peak Kv1.3 currents were recorded before addition of the samples and after reaching steady-state block and results were analyzed using IGOR Pro software (WaveMetrics, Portland, OR) and the IC50 of channel block was calculated by nonlinear regression using Prism software (GraphPad Software, San Diego, CA).

[1] = cited from earlier work
Excerpt: All constructs contain both ShK-235 and EGFP.

Kv1.3 = conditions: cited from earlier work
Excerpt: (§1) The voltage-gated Kv1.3 potassium channel has gained interest as a therapeutic target for obesity, as mice lacking Kv1.3 or treated with a Kv1.3 blocker are protected from high-fat diet (HFD)-induced obesity. Kv1.3 is also a target for autoimmune diseases, as […] (CCR7)^- effector memory T (TEM) lymphocytes express high levels of Kv1.3 upon activation and blocking of Kv1.3 inhibits their function. […] However, S ...

[2] = test system: other Kv1.x channels and the KCa3.1 channel; conditions: cited from earlier work
Excerpt: as §1

T1 sequence (P16390 whole entry): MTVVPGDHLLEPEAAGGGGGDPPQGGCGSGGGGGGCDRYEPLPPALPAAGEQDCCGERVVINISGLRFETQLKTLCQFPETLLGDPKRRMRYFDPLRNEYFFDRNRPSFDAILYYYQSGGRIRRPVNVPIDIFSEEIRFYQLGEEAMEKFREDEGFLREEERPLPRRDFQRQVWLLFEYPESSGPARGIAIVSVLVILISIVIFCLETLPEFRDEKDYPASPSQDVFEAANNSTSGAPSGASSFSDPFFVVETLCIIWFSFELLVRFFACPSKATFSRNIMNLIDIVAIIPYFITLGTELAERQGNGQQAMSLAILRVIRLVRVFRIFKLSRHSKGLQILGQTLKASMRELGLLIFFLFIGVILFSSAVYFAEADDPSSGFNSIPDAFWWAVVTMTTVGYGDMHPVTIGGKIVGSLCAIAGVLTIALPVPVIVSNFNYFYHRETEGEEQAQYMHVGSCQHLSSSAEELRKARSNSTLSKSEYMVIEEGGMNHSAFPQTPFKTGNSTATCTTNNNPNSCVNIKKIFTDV

| Compound | IC50 (mKv1.3 channels) [pM] | immunogenicity [1] | IC50 (Kv1.3) [pM] | block of other Kv1.x channels and KCa3.1 [2] |
| --- | --- | --- | --- | --- |
| CC[C@H](C)[C@@H]1NC(=O)[C@H](CO)NC(=O)[C@H](Cc2c[nH]cn2)NC(=O)[C@H](CCCCN)NC(=O)[C@@H]2CSSC[C@@H]3NC(=O)[C@H]([C@@H](C)O)NC(=O)[C@H](CCCCN)NC(=O)[C@H](CCCNC(=N)N)NC(=O)[C@H](CSSC[C@H](NC(=O)[C@H](CCCNC(=N)N)NC(=O)[C@H](CO)NC(=O)[C@H](CCCCN)NC(=O)[C@@H]4CCCN4C(=O)[C@H]([C@@H](C)CC)NC(=O)[C@H]([C@@H](C)O)NC(=O)[C@H](CC(=O)O)NC(=O)[C@H]([C@@H](C)CC)NC(=O)[C@@H](NC(=O)[C@H](CO)NC(=O)[C@@H](N)CCCNC(=N)N)CSSC[C@@H](C(=O)N[C@@H](C)C(=O)O)NC(=O)[C@H]([C@@H](C)O)NC(=O)CNC3=O)C(=O)N[C@@H]([C@@H](C)O)C(=O)N[C@@H](C)C(=O)N[C@@H](Cc3ccccc3)C(=O)N[C@@H](CCCCN)C(=O)N2)NC(=O)[C@H](Cc2ccccc2)NC(=O)[C@H](CO)NC(=O)[C@H](CC(C)C)NC(=O)[C@H](CCCNC(=N)N)NC(=O)[C@H](Cc2ccc(O)cc2)NC(=O)[C@H](CCCCN)NC1=O [ShK-235] | 70.9 ± 21.9 | not immunogenic |  |  |
| ShK: small peptide produced by the sea anemone Stichodactyla helianthus, one of the most potent blockers of Kv1.3 (RSCIDTIPKSRCTAFKCKHSIKYRLSFCRKTCGTCA) |  |  | 10 | in the pM to low nM range |
